In the OPERA property sets (Mansouri et al. 2018):
Where a SMILES comes first, the peptide text is derived from it. The star is where a group is joined. Boc = CC(C)(C)OC(=O)*

SMILES | logP
CCCCCc1ccc(OCC(OC(=O)n2ccnc2)C(C)(C)C)cc1 (stereo not drawn) | 5.26
CCCCCc1cc(OCc2ccc(-c3ccccc3)cc2)c2c(c1)OC(C)(C)C1CC=C(C)CC21 (stereo not drawn) | 10.9
Clc1cc2c(c(Cl)c1Cl)Oc1c(Cl)cccc1O2 | 6.39
O=C(Cn1ccnc1[N+](=O)[O-])NCCCO | -1.27
C=CCn1cnc2c(=O)[nH]c(Nc3ccccc3)nc21 | 1.75
Nc1nc(=O)n(C2CCC(CO)O2)cc1I (stereo not drawn) | -0.31
Cc1cc([N+](=O)[O-])ccc1NN=C(C#N)C#N | 3.55
CC1CN(c2cc3c(cc2F)c(=O)c(C(=O)O)cn3-c2ccc(F)cc2F)CCN1 (stereo not drawn) | -0.2
CCCSP(=O)(OCC)Oc1cnn(-c2ccc(Cl)cc2)c1 (stereo not drawn) | 3.77
CCN(CC)C(=O)COC(=O)c1ccccc1O | 1.99
CCCCOC(=O)n1cc(F)c(=O)[nH]c1=O | 0.89
Nc1nc(Cl)nc2c1ncn2C1OC(CO)C(O)C1O (stereo not drawn) | -0.37
C#CCOc1c(Cl)cc(NC=NOCC#N)cc1Cl | 3
CN(CC1(C)CCCO1)S(=O)(=O)c1ccc(Cl)c(S(N)(=O)=O)c1 (stereo not drawn) | 1.54
Clc1ccc(Cl)c(-c2c(Cl)ccc(Cl)c2Cl)c1Cl | 7.12
CC(C)CC(C)CC(C)OC(=O)c1ccc(NC(=O)N(C)C)cc1Cl (stereo not drawn) | 5.15
CCC(C)C(NC(C)=O)C(=O)NC(CC(C)C)C(=O)NC(CC(=O)O)C(N)=O (stereo not drawn) (Ac-Ile-Leu-Asp-NH2; configuration not given here) | -0.04
CC(=O)OC1(c2ccccc2)CCN(C)C(C)C1C (stereo not drawn) | 2.52
O=[N+]([O-])C=C1NCCN1Cc1ccc(Cl)cc1 | 0.99
CCOc1ccc(C2(C(=O)OC)CC2(Cl)Cl)cc1 (stereo not drawn) | 4.1
CCCCCCOc1ccc(NC(=O)OCCN2CCOCC2)cc1 | 4.51

SMILES | logP
Cc1cn(C2CC(N=[N+]=[N-])C(COC(=O)CCCNC(=O)C34CC5CC(CC(C5)C3)C4)O2)c(=O)[nH]c1=O (stereo not drawn) | 2.47
Sc1nc(-c2ccccc2)ns1 | 2.13
CC(=O)Nc1ncnc2c1ncn2C1CC(O)C(CO)O1 (stereo not drawn) | -0.19
CCOC(=O)C(NC(=O)CCCCSc1[nH]cnc2ncnc1-2)c1ccccc1 (stereo not drawn) | 1.13
CCOC(=O)Cn1cnc([N+](=O)[O-])c1I | 0.57
C=CCN(C)N=Nc1ccccc1C(N)=O | 2.91
CCN(CC)C(=O)COC(=O)C(C)c1ccc2cc(OC)ccc2c1 (stereo not drawn) | 3.32
CCCCCCOC(=O)Oc1cccc(C2(C(=O)CC)CCN(C)CC2)c1 | 3.38
CCOC(CNC(=O)C1(O)C(C)CC2C3CCC4=CC(=O)C=CC4(C)C3(F)C(O)CC21C)OCC (stereo not drawn) | 2.65
CCC(C)NC(=O)C(Br)=Cc1ccccc1 (stereo not drawn) | 2.66
CC1(CO)COC(Cn2cncn2)(c2ccc(Cl)cc2Cl)OC1 (stereo not drawn) | 2.1
CC(C)(C)OC(=O)NC(Cc1ccccc1)C(=O)NC(Cc1ccc(O)cc1)C(=O)O (stereo not drawn) (Boc-Phe-Tyr-OH; configuration not given here) | 2.79
CCCN1CC(NS(=O)(=O)N(CC)CC)C=C2c3cc(O)ccc3CCC21 (stereo not drawn) | 2.63
CCOC(=O)C(C)Oc1ccc(Oc2cnc3cc(F)ccc3n2)cc1 (stereo not drawn) | 3.65
O=C(Cn1c(=O)sc2ccc(Cl)cc21)N1CCN(CCOS(=O)(=O)O)CC1 | -1.47
NS(=O)(=O)c1ccc2ccccc2c1 | 1.55
C1CCC2=NCCCN2CC1 | 1.38
CCC(=O)C(CS(=O)(=O)c1ccc(C)cc1)c1ccc(OC)cc1 (stereo not drawn) | 2.47
CC(C)(C)C(=O)OCOC(=O)C1=C(CSc2nncs2)CSC2C(NC(=O)Cn3cnnn3)C(=O)N12 (stereo not drawn) | 1.45
CC1(C)CCC(C)(C)N1[O] | 1
COC(O)Cn1c(Br)cnc1[N+](=O)[O-] (stereo not drawn) | 0.16

SMILES | logP
CCCCOC(=O)C(C(=O)OCCCC)=C1SCCS1 | 4.6
c1ccc(-c2nnn[nH]2)cc1 | 1.65
CCC1(C(C)c2ccccc2)C(=O)NC(=O)N(C)C1=O (stereo not drawn) | 3.14
CCC(=O)C(CS(=O)(=O)c1ccc(C)cc1)c1ccccc1 (stereo not drawn) | 2.45
CSC(=NOC(=O)N(C)COC1OC(C(=O)O)C(O)C(O)C1O)C(=O)N(C)C (stereo not drawn) | -2.52
CSCCCNC(=O)C(F)(F)Cn1cnc([N+](=O)[O-])n1 | 0.76
CC1(C)CCCC(C)(C)N1[O] | 1.85
NC(=O)CC(CC(=O)O)c1ccc(Br)cc1 (stereo not drawn) | 1.12
O=[N+]([O-])C=C1NCCCN1Cc1ccc(Cl)nc1 | -0.62
COC(=O)C1CC2C3CCC4=CC(=O)C=CC4(C)C3(F)C(O)CC2(C)C1C(=O)CO (stereo not drawn) | 1.78
Cc1cccc(OCCO)c1 | 1.76
CCC(C)NC(=O)C=C(N)c1ccc(Cl)cc1 (stereo not drawn) | 2.94
c1ccc([C@H]2CN3CCSC3=N2)cc1 | 1.84
CCCC(=O)OCn1ncc2c(=O)[nH]cnc21 | 0.6
CC(=O)C1(O)C(C)CC2C3CCC4=CC(=O)C=CC4(C)C3(F)C(O)CC21C (stereo not drawn) | 2.35
CS(=O)(=O)c1ccc2ccccc2c1 | 1.74
C#CCOc1c(Cl)cc(NC=NOCCCC)cc1Cl | 4.4
COC(O)Cn1c([N+](=O)[O-])nc(Br)c1Br (stereo not drawn) | 1.02
Clc1cccc(-c2c(Cl)cc(Cl)c(Cl)c2Cl)c1Cl | 7.25
Clc1ccc(-c2ccccc2)c(Cl)c1Cl | 5.86
CC(=O)c1c(C)n(C)c2ccccc12 | 2.03
